For orientation: IC50 means the concentration that inhibits the measured activity by half. Read a low IC50 as higher potency.

This passage reports IC50 results from BindingDB's records for patent US11220486 (LA JOLLA INSTITUTE OF ALLERGY & IMMUNOLOGY; SANFORD BURNHAM …, 2022).

The assay has as its target T1, Low molecular weight phosphotyrosine protein phosphatase (Homo sapiens, UniProt P24666).
T1 sequence (P24666 whole entry): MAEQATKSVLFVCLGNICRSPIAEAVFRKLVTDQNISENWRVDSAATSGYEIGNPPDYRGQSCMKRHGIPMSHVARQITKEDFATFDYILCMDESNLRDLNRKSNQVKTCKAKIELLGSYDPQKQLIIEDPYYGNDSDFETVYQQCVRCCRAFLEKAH
Nature of the assay: LMPTP Primary Screening Protocol. The protocol: A listing of materials is provided: Item, source, catalog no. […] Prepare Reagents as described in section F. Recipe. 2. Using LabCyte Echo, transfer 60 nL from 2 mM test compound source plate into assay plate Col. 5-48 (final concentration of test compounds is 20 μM). 60 nL of DMSO should be transferred to col. 1-4 for positive and negative control wells. 3. Spin plates at 1000 rpm for 1 minute in centrifuge. 4. Using the Beckman Coulter Bioraptr, add 3 μL/well of control buffer to columns 1 and 2. 5. Using the Bioraptr, add 3 μL/well of enzyme solution to col. 3-48. 6. Using the Bioraptr, add 3 μL/well of substrate solution to col. 1-48. 7. Spin plates at 1000 rpm for 1 minute in centrifuge. 8. Incubate plates in the dark at room temperature for 50 minutes. 9. Read plates on PerkinElmer Viewlux using a FI protocol.

Each structure is given as a SMILES string.

Compound `CC(C)(C)OC(=O)C1(c2cc(NCCCC3CCCNC3)c3ccccc3n2)C=c2ccccc2=N1` (stereo unspecified) [US11220486, Compound I98] came in with an IC50 greater than 5 µM.
